# Reference: publication PMC9090415, “Discovery of small molecule inhibitors of Plasmodium falciparum apicoplast DNA polymerase” (Journal of Enzyme Inhibition and Medicinal Chemistry, 2022)
# Molecular target: P. falciparum apicoplast DNA polymerase (Pf-apPOL) (Plasmodium falciparum, UniProt Q8ILY1)
# Test: Fluorescence-based high-throughput DNA polymerase assay (molecular beacon), primary screen and dose-response;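 as to % inhibition Apol 40': compound concentration given in µM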
# Type: biochemical
# Conditions: for DNA Pol: 90 min, 10 µM
# Procedure: The HT assay employs a molecular beacon, a stem-loop DNA template with a Cy3 dye and the Black Hole Quencher on the 3′ and 5′ ends of the DNA, respectively. Pf-apPOL concentration is based on a calculated absorptivity of ε280 = 56750 M^−1 cm^−1. Reactions were carried out at 25 °C, using Corning 3575 […] (well-volume, 20 µL). Assays testing for compound inhibition composed of reaction buffer (pH 7.9 in 50 mM potassium acetate, 20 mM Tris-acetate and 10 mM magnesium acetate), Pf-apPOL (20 nM), DNA substrate (20 nM), dNTPs (6 µM), and compound (10 µM in DMSO). The DNA and nucleotide substrates (dNTPs) were at concentrations of 20 nM and 6 µM, respectively, in the assay. Pf-apPOL was incubated in the reaction buffer with dNTPs and the compound of interest (10 µM, in the assay) at 25 °C for 10 min. The DNA substrate was then added and the reaction was allowed to proceed for 90 min at 25 °C.
# Each assay plate contained 16 negative controls (no Pf-apPOL, DMSO present) and 16 positive controls (Pf-apPOL present, no DMSO). The fluorescence of each well was determined using a BioTek Synergy Neo fluorescence plate reader using excitation and emission wavelengths of 555 and 570 nm, respectively.
# In the above, Min is the average of fluorescence emission of the negative controls (substrate only), Max the average fluorescence emission from the positive controls (enzyme + substrate), and Test the emission from the assays in the presence of compounds (enzyme + compound + substrates). […] […] The IC50 of each compound was determined using Equation (2): (2) IC50= Vmax/(1+ (I/IC50)^n)
# In the above, n measures cooperativity, with n > 1 indicating synergistic binding of more than a single molecule of the compound.
# To identify apPOL inhibitors we utilised our previously developed high-throughput DNA polymerase assay. The HT assay is based on a molecular beacon DNA template that forms a stem-loop with a Cy3 dye and the Black Hole Quencher on the 3′ and 5′ ends of the DNA, respectively. DNA polymerase activity extends an annealed primer through the stem region, displacing the fluorophore from the quencher, thereby increasing its fluorescence (Figure 1(A)). The assay accurately recapitulates the kinetic behaviour of apPOL, as measured through more conventional low-throughput gel-based assays. The Z′ factor for the assay described here was 0.9 across all plates (data not shown).
# Figure 1. High-throughput screening. (A) The fluorescent-based DNA polymerase assay used to screen the compound libraries. The DNA template strand is a hairpin loop with a primer annealed to the loop. The 3’ end of the primer is 11 bases away from the 6 bp duplex. Strand displacement activity of the DNA polymerase separates the Cy3 dye from the Black hole quencher leading to an increase in fluorescent signal. (B) The high-throughput assay workflow. The DNA polymerase is incubated with […] compound for 10 min prior to addition of the hairpin substrate. The reaction is quenched at 3 different time points and the fluorescent signal is measured and % inhibition is determined using the provided equation.
# [1] = 'DNA Pol' of the 186 hits list (screen value)
# [2] = primary screen value, "DNA Pol"
# Chain of P. falciparum apicoplast DNA polymerase (Pf-apPOL) (Q8ILY1 entry or part of it): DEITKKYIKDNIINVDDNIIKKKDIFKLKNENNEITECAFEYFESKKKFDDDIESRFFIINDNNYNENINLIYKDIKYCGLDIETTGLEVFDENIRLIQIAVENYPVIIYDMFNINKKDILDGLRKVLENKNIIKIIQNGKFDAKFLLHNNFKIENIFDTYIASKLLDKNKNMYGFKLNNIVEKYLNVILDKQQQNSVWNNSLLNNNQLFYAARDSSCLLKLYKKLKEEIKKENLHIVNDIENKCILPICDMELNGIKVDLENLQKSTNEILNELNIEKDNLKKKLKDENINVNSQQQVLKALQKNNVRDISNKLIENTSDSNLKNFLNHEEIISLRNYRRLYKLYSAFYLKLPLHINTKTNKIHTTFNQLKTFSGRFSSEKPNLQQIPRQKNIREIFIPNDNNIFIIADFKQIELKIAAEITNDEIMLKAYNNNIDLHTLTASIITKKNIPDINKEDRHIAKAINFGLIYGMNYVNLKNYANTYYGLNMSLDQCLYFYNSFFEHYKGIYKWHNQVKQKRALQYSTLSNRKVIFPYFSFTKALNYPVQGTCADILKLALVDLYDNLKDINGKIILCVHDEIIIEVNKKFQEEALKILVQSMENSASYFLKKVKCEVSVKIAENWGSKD
smiles,measurement,setting,value
O=C(O)c1ccc(COc2cc([N+](=O)[O-])cc3cccnc23)cc1 [KU0058403],DNA Pol,[1],59
same,% inhibition Apo pol 10',"DRC-1, conc 2.5",14.3649%
same,% inhibition Apo pol 10',"DRC-1, conc 5",27.7405%
same,% inhibition Apo pol 10',"DRC-1, conc 10",42.2641%
same,% inhibition Apo pol 10',"DRC-1, conc 20",75.4082%
same,% inhibition Apo pol 10',"DRC-1, conc 40",92.5507%
same,% inhibition Apo pol 10',"DRC-1, conc 80",97.3906%
same,% inhibition Apol 90',"DRC-1, conc 2.5",7.929%
same,% inhibition Apol 90',"DRC-1, conc 5",14.8475%
same,% inhibition Apol 90',"DRC-1, conc 10",27.7051%
same,% inhibition Apol 90',"DRC-1, conc 20",56.1594%
same,% inhibition Apol 90',"DRC-1, conc 40",83.537%
same,% inhibition Apol 90',"DRC-1, conc 80",95.378%
same,% inhibition apPOL 180',"DRC-1, conc 2.5",6.111%
same,% inhibition apPOL 180',"DRC-1, conc 5",9.076%
same,% inhibition apPOL 180',"DRC-1, conc 10",18.5156%
same,% inhibition apPOL 180',"DRC-1, conc 20",39.8383%
same,% inhibition apPOL 180',"DRC-1, conc 40",74.9259%
same,% inhibition apPOL 180',"DRC-1, conc 80",94.2886%
same,% inhibition Apo pol 5',"DRC-2, conc 2.5",17%
same,% inhibition Apo pol 5',"DRC-2, conc 5",21%
same,% inhibition Apo pol 5',"DRC-2, conc 10",31%
same,% inhibition Apo pol 5',"DRC-2, conc 20",43%
same,% inhibition Apo pol 5',"DRC-2, conc 40",55%
same,% inhibition Apo pol 5',"DRC-2, conc 80",60%
same,% inhibition Apol 40',"DRC-2, conc 2.5",10%
same,% inhibition Apol 40',"DRC-2, conc 5",14%
same,% inhibition Apol 40',"DRC-2, conc 10",23%
same,% inhibition Apol 40',"DRC-2, conc 20",39%
same,% inhibition Apol 40',"DRC-2, conc 40",59%
same,% inhibition Apol 40',"DRC-2, conc 80",74%
same,% inhibition ApPOL 90',"DRC-2, conc 2.5",7%
same,% inhibition ApPOL 90',"DRC-2, conc 5",12%
same,% inhibition ApPOL 90',"DRC-2, conc 10",19%
same,% inhibition ApPOL 90',"DRC-2, conc 20",35%
same,% inhibition ApPOL 90',"DRC-2, conc 40",57%
same,% inhibition ApPOL 90',"DRC-2, conc 80",76%
same,% inhibition ApPOL 90',"DRC-2, concentration 80",76%
same,% inhibition apPOL 180',"DRC-2, conc 2.5",1.43%
same,% inhibition apPOL 180',"DRC-2, conc 5",2.25%
same,% inhibition apPOL 180',"DRC-2, conc 10",8.43%
same,% inhibition apPOL 180',"DRC-2, conc 20",22%
same,% inhibition apPOL 180',"DRC-2, conc 40",48%
same,% inhibition apPOL 180',"DRC-2, conc 80",76%
same,% inhibition apPOL 180',"DRC-2, concentration 80",76%
same,DNA Pol,[2],59
Cc1ccc(N2NC(=O)/C(=C\c3ccc(O)c([N+](=O)[O-])c3)C2=O)cc1Cl [KU0058427],DNA Pol,[1],41
same,% inhibition Apo pol 10',"DRC-1, conc 2.5",22.1005%
same,% inhibition Apo pol 10',"DRC-1, conc 5",22.1201%
same,% inhibition Apo pol 10',"DRC-1, conc 10",57.6403%
same,% inhibition Apo pol 10',"DRC-1, conc 20",74.2262%
same,% inhibition Apo pol 10',"DRC-1, conc 40",90.9483%
same,% inhibition Apo pol 10',"DRC-1, conc 80",95.3494%
same,% inhibition Apol 90',"DRC-1, conc 2.5",11.8681%
same,% inhibition Apol 90',"DRC-1, conc 5",11.4719%
same,% inhibition Apol 90',"DRC-1, conc 10",38.0061%
same,% inhibition Apol 90',"DRC-1, conc 20",55.0808%
same,% inhibition Apol 90',"DRC-1, conc 40",83.5201%
same,% inhibition Apol 90',"DRC-1, conc 80",94.8173%
same,% inhibition apPOL 180',"DRC-1, conc 2.5",4.9901%
same,% inhibition apPOL 180',"DRC-1, conc 5",2.877%
same,% inhibition apPOL 180',"DRC-1, conc 10",25.4818%
same,% inhibition apPOL 180',"DRC-1, conc 20",38.9214%
same,% inhibition apPOL 180',"DRC-1, conc 40",73.2638%
same,% inhibition apPOL 180',"DRC-1, conc 80",93.9984%
same,% inhibition Apo pol 5',"DRC-2, conc 2.5",11%
same,% inhibition Apo pol 5',"DRC-2, conc 5",21%
same,% inhibition Apo pol 5',"DRC-2, conc 10",35%
same,% inhibition Apo pol 5',"DRC-2, conc 20",44%
same,% inhibition Apo pol 5',"DRC-2, conc 40",54%
same,% inhibition Apo pol 5',"DRC-2, conc 80",56%
same,% inhibition Apo pol 5',"DRC-2, concentration 2.5",11%
same,% inhibition Apo pol 5',"DRC-2, concentration 20",44%
same,% inhibition Apol 40',"DRC-2, conc 2.5",11%
same,% inhibition Apol 40',"DRC-2, conc 5",20%
same,% inhibition Apol 40',"DRC-2, conc 10",34%
same,% inhibition Apol 40',"DRC-2, conc 20",46%
same,% inhibition Apol 40',"DRC-2, conc 40",64%
same,% inhibition Apol 40',"DRC-2, conc 80",74%
same,% inhibition Apol 40',"DRC-2, concentration 2.5",11%
same,% inhibition Apol 40',"DRC-2, concentration 5",20%
same,% inhibition ApPOL 90',"DRC-2, conc 2.5",9%
same,% inhibition ApPOL 90',"DRC-2, conc 5",19%
same,% inhibition ApPOL 90',"DRC-2, conc 10",28%
same,% inhibition ApPOL 90',"DRC-2, conc 20",44%
same,% inhibition ApPOL 90',"DRC-2, conc 40",65%
same,% inhibition ApPOL 90',"DRC-2, conc 80",78%
same,% inhibition ApPOL 90',"DRC-2, concentration 2.5",9%
same,% inhibition ApPOL 90',"DRC-2, concentration 20",44%
same,% inhibition apPOL 180',"DRC-2, conc 2.5",2.37%
same,% inhibition apPOL 180',"DRC-2, conc 5",9%
same,% inhibition apPOL 180',"DRC-2, conc 10",20%
same,% inhibition apPOL 180',"DRC-2, conc 20",33%
same,% inhibition apPOL 180',"DRC-2, conc 40",57%
same,% inhibition apPOL 180',"DRC-2, conc 80",80%
same,% inhibition apPOL 180',"DRC-2, concentration 5",9%
same,% inhibition apPOL 180',"DRC-2, concentration 10",20%
same,DNA Pol,[2],41
Cc1cccc(C2=N/C(=C\c3ccc([N+](=O)[O-])o3)C(=O)O2)c1 [KU0058960],DNA Pol,[1],79
same,% inhibition Apo pol 10',"DRC-1, conc 2.5",31.9938%
same,% inhibition Apo pol 10',"DRC-1, conc 5",37.9558%
same,% inhibition Apo pol 10',"DRC-1, conc 10",61.5267%
same,% inhibition Apo pol 10',"DRC-1, conc 20",80.2962%
same,% inhibition Apo pol 10',"DRC-1, conc 40",86.7912%
same,% inhibition Apo pol 10',"DRC-1, conc 80",87.9713%
same,% inhibition Apol 90',"DRC-1, conc 2.5",16.0415%
same,% inhibition Apol 90',"DRC-1, conc 5",19.2427%
same,% inhibition Apol 90',"DRC-1, conc 10",39.4275%
same,% inhibition Apol 90',"DRC-1, conc 20",66.6869%
same,% inhibition Apol 90',"DRC-1, conc 40",86.2407%
same,% inhibition Apol 90',"DRC-1, conc 80",92.5412%
same,% inhibition apPOL 180',"DRC-1, conc 2.5",6.3408%
same,% inhibition apPOL 180',"DRC-1, conc 5",6.493%
same,% inhibition apPOL 180',"DRC-1, conc 10",24.2065%
same,% inhibition apPOL 180',"DRC-1, conc 20",52.0492%
same,% inhibition apPOL 180',"DRC-1, conc 40",83.7016%
same,% inhibition apPOL 180',"DRC-1, conc 80",94.2271%
same,% inhibition Apo pol 5',"DRC-2, conc 2.5",15%
same,% inhibition Apo pol 5',"DRC-2, conc 5",25%
same,% inhibition Apo pol 5',"DRC-2, conc 10",37%
same,% inhibition Apo pol 5',"DRC-2, conc 20",45%
same,% inhibition Apo pol 5',"DRC-2, conc 40",51%
same,% inhibition Apo pol 5',"DRC-2, conc 80",48%
same,% inhibition Apo pol 5',"DRC-2, concentration 10",37%
same,% inhibition Apol 40',"DRC-2, conc 2.5",12%
same,% inhibition Apol 40',"DRC-2, conc 5",23%
same,% inhibition Apol 40',"DRC-2, conc 10",37%
same,% inhibition Apol 40',"DRC-2, conc 20",50%
same,% inhibition Apol 40',"DRC-2, conc 40",64%
same,% inhibition Apol 40',"DRC-2, conc 80",69%
same,% inhibition Apol 40',"DRC-2, concentration 10",37%
same,% inhibition ApPOL 90',"DRC-2, conc 2.5",9%
same,% inhibition ApPOL 90',"DRC-2, conc 5",19%
same,% inhibition ApPOL 90',"DRC-2, conc 10",33%
same,% inhibition ApPOL 90',"DRC-2, conc 20",47%
same,% inhibition ApPOL 90',"DRC-2, conc 40",66%
same,% inhibition ApPOL 90',"DRC-2, conc 80",74%
same,% inhibition apPOL 180',"DRC-2, conc 2.5",1.68%
same,% inhibition apPOL 180',"DRC-2, conc 5",7%
same,% inhibition apPOL 180',"DRC-2, conc 10",20%
same,% inhibition apPOL 180',"DRC-2, conc 20",36%
same,% inhibition apPOL 180',"DRC-2, conc 40",63%
same,% inhibition apPOL 180',"DRC-2, conc 80",78%
same,DNA Pol,[2],79
